Results published in ChEMBL document CHEMBL1121805, “Nucleosides containing chemically reactive groups” (1981).

Columns and labels:
L1210 [1] = assay: Percent inhibition of incorporation of [8-14C]-Adenine into DNA of L1210 cells; assay type: functional, Mus musculus
L1210 [2] = assay: Percent inhibition of incorporation of [Me-3H]-Thymidine into DNA of L1210 cells; assay type: functional, Mus musculus
L1210 [3] = assay: Percent inhibition of incorporation of [5-3H]-Uridine into DNA of L1210 cells; assay type: functional, Mus musculus
L1210 [4] = assay: Cytotoxicity was evaluated against the L1210 cell lines in vitro; assay type: functional; details: Mus musculus, read-out: ED50 (the source's name)

Question: Which results are given for `Cc1cn(C2CC(O)C(CCNC(=O)CBr)O2)c(=O)[nH]c1=O` (centres undefined)?
Answer: Inhibition (L1210 [1]): 67%; Inhibition (L1210 [2]): 52%; Inhibition (L1210 [3]): 60%

Question: For `O=C(CBr)NC[C@H]1OC(n2cnc3c(O)ncnc32)[C@H](O)[C@@H]1O` (some centres undefined), which EC50 (L1210 [4]) is on record?
Answer: < 5 µg/mL
